Experimental data taken from patent US20040242669A1, “Method of treating deficits associated with brain injury” (priority 2003, published 2004).
Marks after values point to notes of the source that are not given here.

Columns and labels:
Format in all cases: in vivo, rat
[1] = test system: animals with chronic brain occlusive ischemia; experiment: Step-through passive avoidance, chronic brain occlusive ischemia; settings: for Latency: median latency to re-enter dark box, max 300 s
Method: (§1) Male rats of the Sprague-Dawley strain (purchased from Charles River, Italy) weighing 280±20 g were used throughout all experiments. The animals were housed two-three to a cage under a constant light-dark cycle (lights on between 8.00 and 20.00) at 21° C. Commercial food and tap water were available ad libitum. All animals were used only once in the behavioral experiments.
(§2) A number of animals were subjected to a manipulation of the four major arteries of the brain with a method similar to that described by Pulsinelli et al., Ann. Neurol, 11, 491-498 (1982). Both vertebral arteries were cauterised under sodium pentobarbital anaesthesia and polyethylene cuffs PE-10 were placed loosely around the common carotid arteries without completely interrupting carotid blood flow. Two months after operation, all surviving animals showing no neurological gross abnormalities were admitted to drug treatment. Animals undergoing a sham operation were considered as controls.
(§3) Ropinirole (ropinirole hydrochloride, SmithKline Beecham, Italy) and dihydroergocryptine (DHECP) α-dihydroergocryptine methanesulfonate, Monsanto, Italy) were dissolved in saline and injected subcutaneously (s.c.) at the dose of 0.5 and 1 mg/kg/day for 7 days. In the experiments with kainate-induced convulsions, ropinirole or DHECP were injected intravenously (i.v.) 30 min prior, and again at the same time of the intracerebroventricular (i.c.v) injection on kainic acid; Control animals received an injection of saline alone with the same procedure.
(§4) Animals with 2-month chronic brain occlusive ischemia, were subjected to a treatment with ropinirole, DHECP or saline for 7 days. At the end of treatment, the animals were admitted to behavioral testing. Controls were those animals with sham manipulation of brain arteries.

kainate-induced epilepsy = experiment: Kainate-induced convulsions (epilepsy); settings: for Latency (s) to the first tonic-clonic seizure / Seizures (total number) / Mortality (%): kainic acid 10 μg/2 μl i.c.v.; for Latency (s) to the first tonic-clonic seizure / Seizures (total number): 30-min observation, mean ± S.E.M.; for Mortality (%): checked 2 h after convulsive agent
Method: as §1
Another group of animals were implanted under ether anaesthesia with a permanent plastic cannula in the right lateral ventricle (foramen interventriculare, Konig and Klippel A 6360) with another cannula into the right jugular vein. These animals were sacrificed at the end of behavioral procedure and the brains were utilized for biochemical analysis. Data were taken from animals showing no abnormalities at the postmortem examination. All experiments were carried out according to the European Community Council Directive 86/609/ECC and efforts were made to minimize animal suffering and to reduce the number of animals used.
as §3, with “[…],” for “ropinirole or DHECP were injected intravenously (i.v.) 30 min prior,”
Kainic acid (Sigma, USA) was dissolved in saline and injected i.c.v. at the dose of 10 μg/2 μi.
Over a 30-min observation, the following items were recorded per each animal receiving an i.c.v. injection of kainic acid: latency in s to the first tonic-clonic seizure; total number of seizures, percent rate of mortality (checked 2 h after the administration of the convulsive agent).
Behavioral scoring of kainate-induced convulsions was started immediately after i.c.v. injection of the drug and proceeded for 30 min. Ropinirole, DHECP or saline were injected twice, 30 min prior and, again, at the same time of the i.c.v. administration of kainic acid.

[2] = test system: reduced glutathione in brain areas of rats subjected to hypobaric hypoxia; experiment: Brain glutathione content and redox index after hypobaric hypoxia; settings: for reduced glutathione content: mean ± S.E.M.
Method: (§5) At the end of the behavioral studies, the brain of animals sacrificed by decapitation were taken and rapidly frozen for analysis. Dissection and weighing were carried out at −25° C. The frozen forebrains were immediately powered under liquid nitrogen by an electromechanical apparatus and stored at […]. The assay of reduced and oxidized glutathione by 5,5′-dithibis-(2-nitrobenzoic acid) in frozen forebrain powder was carried out within 3 h, utilizing perchloric acid and N-ethylmaleimide in presence of ethylenediamidetetraacetic acid for the extraction procedure (Tietze, Anal Biochem, 27, 502-522, (1969)).
In the first experiment, the effects of ropinirole or DHECP were studied on amnesia induced by hypobaric hypoxia in rats. After a 7-day pretreatment with ropinirole, DHECP or saline, a group of animals was subjected to acute hypobaric hypoxia by means of a hypobaric chamber (Chantiers et Ateliers de Bretagne, France) causing depression to 300 mmHg (Boismare et al., Gerentology, 24, 6-13 (1978)). After 3 min in the chamber, the animals were removed and admitted for behavioral testing. Intact control rats were also introduced into the chamber but not subjected to hypobaric hypoxia.
(§6) All animals used for hypobaric hypoxia induced amnesia and for chronic brain occlusive ischemia was sacrificed at the end behavioral procedure for biochemical analyses.

[3] = test system: animals with chronic brain occlusive ischemia; experiment: Open field spontaneous motor activity, chronic brain occlusive ischemia; settings: for Ambulation / Defecation / Grooming / Rearing: 5 min open field, mean ± S.E.M.
Method: as §1, §2, §3
Spontaneous motor activity was scored in a circular open field arena as described by Weijnen and Slangen, Pituitary, Adrenal and the Brain, pp221-235 (1982). Animals were put inside a circular lit-up arena, with the bottom divided into 27 areas of equal size.
as §4

[4] = test system: reduced glutathione in brain areas of rats subjected to chronic brain occlusive ischemia; experiment: Brain glutathione content and redox index after chronic brain occlusive ischemia; settings: for reduced glutathione content: mean ± S.E.M.
Text: as §2, §5, §4, §6

[5] = kainate-induced seizures, summary of Table 3

SMILES: CC(C)C[C@H]1C(=O)N2CCC[C@H]2[C@]2(O)O[C@](NC(=O)[C@@H]3C[C@@H]4c5cccc6[nH]cc(c56)C[C@H]4N(C)C3)(C(C)C)C(=O)N12 [DHECP, α-dihydroergocryptine methanesulfonate]
- Latency ([1]; 0.5 mg/kg/day s.c. for 7 days): 46^c,d
- Latency ([1]; 1 mg/kg/day s.c. for 7 days): 58^d
- latency to re-enter the dark-box (effect of treatment, in words) ([1]; Table 2): increased
- latency to the first tonic-clonic seizure (effect of treatment, in words) (kainate-induced epilepsy; [5]): did not modify
- percent mortality rate (effect of treatment, in words) (kainate-induced epilepsy; [5]): significant decrease
- total number of kainate-induced seizures (effect of treatment, in words) (kainate-induced epilepsy; [5]): did not modify
- Latency (s) to the first tonic-clonic seizure (kainate-induced epilepsy; 0.5 mg/kg injected s.c. twice (30 min prior and at kainic acid)): 56.9 ± 8.5 s
- Seizures (total number) (kainate-induced epilepsy; 0.5 mg/kg injected s.c. twice): 7.8 ± 1.0
- Mortality (%) (kainate-induced epilepsy; 0.5 mg/kg injected s.c. twice): 10^a %
- Latency (s) to the first tonic-clonic seizure (kainate-induced epilepsy; 1 mg/kg injected s.c. twice (30 min prior and at kainic acid)): 69.2 ± 6.5 s
- Seizures (total number) (kainate-induced epilepsy; 1 mg/kg injected s.c. twice): 5.7 ± 1.1
- Mortality (%) (kainate-induced epilepsy; 1 mg/kg injected s.c. twice): 10^a %
- glutathione redox index (glutathione reduced/glutathione oxidized ratio) ([2]; Cortex, 0.5 mg/kg): 2.5
- reduced glutathione content ([2]; Cortex, 0.5 mg/kg): 2.2 ± 0.2 mM
- glutathione redox index (glutathione reduced/glutathione oxidized ratio) ([2]; Cortex, 1 mg/kg): 2.3
- reduced glutathione content ([2]; Cortex, 1 mg/kg): 2.5 ± 0.2 mM
- glutathione redox index (glutathione reduced/glutathione oxidized ratio) ([2]; Hippocampus, 0.5 mg/kg): 1.8
- reduced glutathione content ([2]; Hippocampus, 0.5 mg/kg): 2.1 ± 0.2 mM
- glutathione redox index (glutathione reduced/glutathione oxidized ratio) ([2]; Hippocampus, 1 mg/kg): 2.2
- reduced glutathione content ([2]; Hippocampus, 1 mg/kg): 2.4 ± 0.2 mM
- glutathione redox index (glutathione reduced/glutathione oxidized ratio) ([2]; Hypothalamus, 0.5 mg/kg): 2.6
- reduced glutathione content ([2]; Hypothalamus, 0.5 mg/kg): 2.8 ± 0.2 mM
- glutathione redox index (glutathione reduced/glutathione oxidized ratio) ([2]; Hypothalamus, 1 mg/kg): 2.8
- reduced glutathione content ([2]; Hypothalamus, 1 mg/kg): 2.8 ± 0.2 mM
- glutathione redox index (glutathione reduced/glutathione oxidized ratio) ([2]; Striatum, 0.5 mg/kg): 0.7
- reduced glutathione content ([2]; Striatum, 0.5 mg/kg): 1.8 ± 0.2 mM
- glutathione redox index (glutathione reduced/glutathione oxidized ratio) ([2]; Striatum, 1 mg/kg): 1.7
- reduced glutathione content ([2]; Striatum, 1 mg/kg): 2.5 ± 0.2 mM
- reduced glutathione content and glutathione redox index (effect of treatment, in words) ([2]; cortex, hippocampus and hypothalamus, both doses): increase
- reduced glutathione content and glutathione redox index (effect of treatment, in words) ([2]; striatum): only with the greater dose
- Ambulation ([3]; 0.5 mg/kg/day s.c. for 7 days): 68.9 ± 6.6^a,e
- Defecation ([3]; 0.5 mg/kg/day s.c. for 7 days): 3.4 ± 0.9^a
- Grooming ([3]; 0.5 mg/kg/day s.c. for 7 days): 22.2 ± 2.3
- Rearing ([3]; 0.5 mg/kg/day s.c. for 7 days): 16.4 ± 1.3^e
- Ambulation ([3]; 1 mg/kg/day s.c. for 7 days): 73.1 ± 5.6^a,e
- Defecation ([3]; 1 mg/kg/day s.c. for 7 days): 3.7 ± 1.3^a
- Grooming ([3]; 1 mg/kg/day s.c. for 7 days): 23.3 ± 2.1
- Rearing ([3]; 1 mg/kg/day s.c. for 7 days): 16.5 ± 1.9^e
- ambulation and rearing (effect of treatment, in words) ([3]; to a level similar to that of intact controls): increased
- glutathione redox index (glutathione reduced/glutathione oxidized ratio) ([4]; Cortex, 0.5 mg/kg): 2.5
- reduced glutathione content ([4]; Cortex, 0.5 mg/kg): 2.3 ± 0.1 mM
- glutathione redox index (glutathione reduced/glutathione oxidized ratio) ([4]; Cortex, 1 mg/kg): 2.3
- reduced glutathione content ([4]; Cortex, 1 mg/kg): 2.6 ± 0.2 mM
- glutathione redox index (glutathione reduced/glutathione oxidized ratio) ([4]; Hippocampus, 0.5 mg/kg): 1.8
- reduced glutathione content ([4]; Hippocampus, 0.5 mg/kg): 2.0 ± 0.2 mM
- glutathione redox index (glutathione reduced/glutathione oxidized ratio) ([4]; Hippocampus, 1 mg/kg): 2.2
- reduced glutathione content ([4]; Hippocampus, 1 mg/kg): 2.3 ± 0.3 mM
- glutathione redox index (glutathione reduced/glutathione oxidized ratio) ([4]; Hypothalamus, 0.5 mg/kg): 2.6
- reduced glutathione content ([4]; Hypothalamus, 0.5 mg/kg): 2.8 ± 0.2 mM
- glutathione redox index (glutathione reduced/glutathione oxidized ratio) ([4]; Hypothalamus, 1 mg/kg): 2.7
- reduced glutathione content ([4]; Hypothalamus, 1 mg/kg): 2.7 ± 0.2 mM
- glutathione redox index (glutathione reduced/glutathione oxidized ratio) ([4]; Striatum, 0.5 mg/kg): 0.7
- reduced glutathione content ([4]; Striatum, 0.5 mg/kg): 1.8 ± 0.2 mM
- glutathione redox index (glutathione reduced/glutathione oxidized ratio) ([4]; Striatum, 1 mg/kg): 0.7
- reduced glutathione content ([4]; Striatum, 1 mg/kg): 1.7 ± 0.2 mM
